# According to US7915050B2, “Regulatory genes for plant differentiation and growth, and use of the same” (National University Corporation Nagoya University, priority 2005, dated 2011):
# Tests used:
# AtGID1a = biological target: T1, AtGID1a (Arabidopsis thaliana, UniProt Q9MAA7); test: Competitive ability of GA in AtGID1-GA binding (AtGID1a)
# T1 construct: made in house; host or cells: E. coli
# T1 sequence (Q9MAA7 1-345): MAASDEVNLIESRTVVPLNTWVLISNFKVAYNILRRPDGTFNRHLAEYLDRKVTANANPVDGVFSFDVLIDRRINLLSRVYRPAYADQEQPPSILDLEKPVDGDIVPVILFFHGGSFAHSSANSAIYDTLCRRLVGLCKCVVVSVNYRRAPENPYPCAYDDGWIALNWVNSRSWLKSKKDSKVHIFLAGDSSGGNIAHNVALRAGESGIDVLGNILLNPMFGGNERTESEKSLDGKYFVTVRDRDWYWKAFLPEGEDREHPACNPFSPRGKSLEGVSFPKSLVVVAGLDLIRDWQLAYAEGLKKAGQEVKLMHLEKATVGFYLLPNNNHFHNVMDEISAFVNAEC
# Procedure: (§1) In the gibberellin-binding assay, [1,2,16,17-^3H4]16,17-dihydro-GA4 was used as a labeled GA4. In vitro GA-binding assays were carried out using previous methods with some modifications (Nakajima, M. et al., Biochem. Biophys. Res. Comm. 241, 782-786 (1997)). The purified recombinant GID1 protein (400 pmol) was dissolved in 300 μl of binding buffer [20 mM Tris-HCl (pH 7.6), 5 mM 2-mercaptoethanol, and 0.1 M NaCl], and incubated with 100 μl of ^3H4-16,17-dihydroGA4 (6 pmol) for two hours at 25° C., either in the absence of non-labeled GA4 (total binding) or in the presence of 833-fold excess non-labeled GA4 (total non-specific binding). Then, 0.1 ml of the reaction mixture was loaded onto a NAP-5 column (Amersham Biosciences, Piscataway, N.J.). The eluate of the binding buffer (0.6 ml) was discarded, the subsequent eluate (0.2 ml) was collected, and the radioactivity was measured. The specific binding activity, reflecting the number of displaceable GA binding sites, was calculated by subtracting the amount of nonspecific binding from the amount of total binding. The same as above can also be carried out for other GAs.
# (§2) Specifically, the coding region of the AtGID1 gene was amplified by PCR using specific primers designed based on the full-length cDNA sequence of the AtGID1 gene and having appropriate restriction sites at each end. After confirmation by sequence analysis, each cDNA fragment was ligated into pET32a vector (Novagen/Merck Biosciences, Madison, Wis., USA) or pGEX-4T-2 vector (Amersham Biosciences, Piscataway, N.J., USA; currently, a part of GE Healthcare). The production of recombinant proteins was confirmed by SDS-PAGE; vector cassettes were used as negative controls. GA binding assays were carried out similarly as described above using [1,2,16,17-^3H4]-16,17-dihydro-GA4 (4.55 TBq/mmol), which was custom-made by DuPont/NEN (Boston, Mass., USA). Non-labeled GA4 (1.25 mM) was used to measure non-specific binding. Saturation experiments for the kinetic analysis were carried out using ten concentrations of 16,17-dihydro-GA4 within the range of 25 to 1,500 nM. Competition assays were performed using [1,2,16,17-^3H4]-16,17-dihydro-GA4 at 15 nM and five concentrations of the non-labeled competitor. Recombinant RGA and GAI proteins were prepared using pET32a by a previously described method.
# (§3) The ligand selectivity of each AtGID1 was examined by observing the competitive inhibition, by the addition of GA to the assay mixtures, of the binding between the recombinant proteins and tritiated 16,17-dihydro-GA4 (Table 2). The ligand selectivity was evaluated using the concentration of GA that inhibits 50% of the tracer (15 nM) binding (IC50 value).
# AtGID1c = biological target: T2, AtGID1c (Arabidopsis thaliana, UniProt Q940G6); test: Competitive ability of GA in AtGID1-GA binding (AtGID1c)
# T2 construct: made in house; host or cells: E. coli
# T2 sequence (Q940G6 1-344): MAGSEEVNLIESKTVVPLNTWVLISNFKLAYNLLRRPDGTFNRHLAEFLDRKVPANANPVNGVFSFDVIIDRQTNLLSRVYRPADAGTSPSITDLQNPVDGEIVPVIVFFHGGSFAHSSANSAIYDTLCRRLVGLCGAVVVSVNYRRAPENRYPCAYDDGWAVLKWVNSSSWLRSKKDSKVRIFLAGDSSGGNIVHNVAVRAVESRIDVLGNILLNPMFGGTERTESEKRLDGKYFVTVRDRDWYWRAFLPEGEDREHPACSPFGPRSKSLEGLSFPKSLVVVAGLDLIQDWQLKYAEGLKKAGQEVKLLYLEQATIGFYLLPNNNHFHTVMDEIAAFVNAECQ
# Procedure: as §1, §2, §3
# GID1 = biological target: T3, GID1 (Oryza sativa subsp. japonica, UniProt Q6L545); test: Saturation/Scatchard and association/dissociation analysis of GA binding to recombinant GID1; parameters: species or system rice; settings: Scatchard plot analysis
# T3 construct: GST (tag of vector pGEX-4T) (N); made in house
# Procedure: Panel a) depicts the saturability for the GA binding of GID1. […] Bar represents the standard deviation (n=3). Panel b) depicts the results of a Scatchard plot for the data of binding shown in a. The Kd value was calculated (correlation coefficient R^2=0.96) from t three independent experimental results. Panel c) depicts the ^3H-GA association/dissociation rate to GID1. […] Bar represents the standard deviation (n=3). […] Upper panel, none of three recombinant proteins of mutant GID1s (GID1-1, 1-2, and 1-3) corresponding to the three gid1 alleles interacted with GA4. […] Bar represents the standard deviation (n=3). Bottom panel, Coomassie brilliant blue stain of the recombinant proteins used in this experiment. Dot represents GID or tag proteins in the SDS-PAGE profile. In this experiment, almost equal amounts of proteins were used for each (80 pmol). Panel e) depicts the gross morphologies of a GID1-overexpressing plant (Actin1 promoter-GID1, right) and wild type plant (control, left) three months after seeding. Bar=50 cm. f) dose-dependent GA response in the elongation of the second leaf sheath of GID1overexpressing plant (closed triangle) and wild type (closed circle). Bar represents the standard deviation (n=5).
# In the gibberellin-binding assay, [1,2,16,17-^3H4]16,17-dihydro-GA4 was used as a labeled GA4. In vitro GA-binding assays were carried out using previous methods with some modifications (Nakajima, M. et al., Biochem. Biophys. Res. Comm. 241, 782-786 (1997)). […] The eluate of the binding buffer (0.6 ml) was discarded, the subsequent eluate (0.2 ml) was collected, and the radioactivity was measured. The specific binding activity, reflecting the number of displaceable GA binding sites, was calculated by subtracting the amount of nonspecific binding from the amount of total binding. […]
# Next, the kinetics of the binding of GID1 to GA was analyzed. To calculate the Kd value of GID1 to GA, the saturability of GA binding was measured using various concentrations of GA4 derivative (FIG. 4a). […]
# [1] = tracer 15 nM, mean of at least two measurements
# T3 sequence (Q6L545 whole entry): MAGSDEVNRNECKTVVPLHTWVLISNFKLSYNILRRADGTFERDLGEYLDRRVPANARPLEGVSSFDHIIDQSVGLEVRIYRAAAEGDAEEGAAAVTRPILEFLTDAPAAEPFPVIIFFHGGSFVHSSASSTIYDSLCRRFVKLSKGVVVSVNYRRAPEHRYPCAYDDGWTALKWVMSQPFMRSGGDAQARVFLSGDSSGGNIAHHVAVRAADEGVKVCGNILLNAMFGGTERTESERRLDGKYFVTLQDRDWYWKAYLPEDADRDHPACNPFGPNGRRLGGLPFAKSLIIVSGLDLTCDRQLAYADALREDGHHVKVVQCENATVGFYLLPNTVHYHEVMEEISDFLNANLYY
smiles,measurement,setting,value
"CC1C[C@]23C[C@H]1CCC2[C@]12CC[C@H](O)[C@](C)(C(=O)O1)[C@H]2[C@@H]3C(=O)O (some centres unmarked) [H2-GA4, 16,17-dihydro-GA4]","relative value, taking the value for GA4 as 100",AtGID1a,(8) %
same,IC50,AtGID1a; [1],4 µM
same,"relative value, taking the value for GA4 as 100",AtGID1c,(6) %
same,IC50,AtGID1c; [1],5 µM
same,Kd,GID1,1.4 µM
